This note sets out measurements from PubChem BioAssay AID179 (DTP/NCI, 2004).

For the assay, the system named is CEM cells HIV-1 protection, formazan growth assay. As to the kind of experiment: NCI AIDS Antiviral Assay. The note with it: for IC50: measured here: growth of uninfected CEM cells. The method in brief: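 Soluble formazan readout of cell growth; CEM cells ± HIV-1; 5 drug concs. ≥50% protection → retest; ≥50% again = moderately active; reproducible 100% = confirmed active.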

The source made the active and inactive calls.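 The calls were made as follows: active = compounds giving half or more protection of infected cells from virus-caused growth loss, again on retest; inactive = the rest.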 Where a SMILES comes first, the peptide text is derived from it. Bridges are numbered along the chain shown (N, C = ends). Roman numbers before positions name the chains, in order. The star is where a group is joined. Bz = O=C(c1ccccc1)*

Consider `COc1cc2c(c(OC)c1OC)-c1ccc(OC)c(=O)cc1[C@@H](NC(C)=O)CC2`, for which the outcome was inactive.

For orientation: EC50 means the midpoint of the concentration-response curve. As a reminder, the IC50 is the concentration at which inhibition is half-maximal. A high value points to lower potency. On to `COc1ccccc1NC(=O)C(/C=N/C(N)=S)=C(\C)O`, for which the EC50 is greater than 200 µM and the IC50 is greater than 200 µM.

In the case of `CCOC(=O)c1c(NC(=O)c2ccc(OC)cc2)sc2c1CCCC2`, the EC50 was greater than 151 µM and the IC50 is greater than 151 µM.

In the case of `c1ccc(CN2COc3c(ccc4ccccc34)C2)cc1`, the EC50 was greater than 200 µM and the IC50 turned out to be 55 µM.

Regarding `Cc1ccc(N2COc3ccc4ccccc4c3C2)cc1`, the EC50 was greater than 200 µM and the IC50 stood at 26.3 µM.

Turning to `CC1(O)CC2(O)C=CC3=C(C(=O)c4cccc(O)c4C3=O)C2(O)C(=O)C1O` (configuration not stated), the EC50 is greater than 676 µM and the IC50 turned out to be 0.339 µM.

In the case of `C=CC(C)(O)CN(C=O)Cc1ccccc1` (configuration not stated), the EC50 was greater than 589 µM and the half-inhibitory concentration (IC50) is greater than 589 µM.

Consider `CSCS(=O)C[C@H](CO)NC(=O)/C=C/c1c(C)[nH]c(=O)[nH]c1=O` (some centres not stated), for which the EC50 was greater than 692 µM and the IC50 worked out at 0.447 µM.

Take `Cc1cccc(N2C(=O)C3c4[nH]c5ccccc5c4C4CCC(C(C)(C)C)CC4C3C2=O)c1` (configuration not stated): the EC50 is greater than 200 µM and the IC50 worked out at 38.9 µM.

For the compound `COC(=O)C1=C(C(=O)OC)C2CCC1CC2=O` (configuration not stated), the EC50 is greater than 200 µM and the IC50 worked out at 44.7 µM.

On to `O=C(COc1cc(=O)oc2ccccc12)c1ccccc1`, for which the EC50 was greater than 200 µM and the IC50 worked out at 151 µM.

With `CC(=O)OCCCCn1cnc2nc(Nc3ccccc3)nc(Cl)c21`, the EC50 is greater than 200 µM and the concentration for half-maximal inhibition (IC50) was 135 µM.

Turning to `NNC(=S)N/N=C(/C(=O)Nc1ccc([N+](=O)[O-])cc1)c1nc2ccc([N+](=O)[O-])cc2[nH]c1=O`, the EC50 is greater than 145 µM and the 50% inhibitory concentration (IC50) was greater than 145 µM.

`C1=Cc2ccccc2/C1=C/c1cc2c3c(c1)CCCN3CCC2`: the EC50 was greater than 43.7 µM and the half-inhibitory concentration (IC50) is greater than 43.7 µM.

For the compound `O=C1/C(=C/c2ccccc2Cl)COc2ccccc21`, the EC50 is greater than 19.1 µM and the IC50 was found to be 11.2 µM.

With `COc1ccc2c(c1)CCc1c(-c3noc4c3CCc3cc(OC)ccc3-4)noc1-2`, the EC50 was greater than 234 µM and the IC50 was greater than 234 µM.

With `Cc1cc(C)n(-c2nsc3ccccc23)n1`, the EC50 was greater than 112 µM and the 50% inhibitory concentration (IC50) was greater than 112 µM.

In the case of `N#C/C(=C\c1ccccc1F)C(=O)O`, the EC50 was greater than 676 µM and the IC50 is 302 µM.

As to `CCOC(=O)c1cc(C2CCN(c3ccccc3)C2=O)c(C(=O)/C=C(/C)N)[nH]1` (configuration not stated), the EC50 is 57.5 µM and the IC50 was greater than 200 µM.

As for `CCC1(Br)C(=O)NC(=O)NC1=O`, the EC50 was 42.7 µM and the IC50 worked out at 115 µM.

Take `O=C(O)CSC1=NNC2(C(=O)N1)c1ccccc1-c1ccccc12`: the EC50 was greater than 200 µM and the concentration for half-maximal inhibition (IC50) amounted to 58.9 µM.

On to `C=CCN(N=O)C(=O)NCCCCC(NC(C)=O)C(=O)NCc1ccccc1` (configuration not stated), for which the result was inactive.

In the case of `CCOC(=O)c1ccc(CSc2ccc(OC)cc2)cc1`, the EC50 is greater than 33.1 µM and the 50% inhibitory concentration (IC50) is 16.2 µM.

For `CCOC(=O)CCc1ccc(NC(=O)/C=C/c2ccc([N+](=O)[O-])o2)cc1`, the EC50 was greater than 200 µM and the IC50 was found to be 0.372 µM.

On to `O=C1C=C/C(=N\N=C(c2ccccc2)c2ccccc2)O1`, for which the EC50 was greater than 200 µM and the concentration for half-maximal inhibition (IC50) was 145 µM.

For the compound `Clc1ccc(OCc2nnc3n2N=C(c2ccc(Br)cc2)CS3)cc1`, the outcome was inactive.

As for `CNC(=S)N/N=C(\C)c1ccc(OC)cc1O`, the EC50 was greater than 200 µM and the IC50 was 13.8 µM.

In the case of `COc1ccc(C2CC(C)=Nc3c([nH]c(=S)[nH]c3=O)N2)cc1` (configuration not stated), the EC50 is greater than 16.6 µM and the IC50 was greater than 16.6 µM.

In the case of `S=C1C(=Nc2ccccc2)N(C2CCCCC2)C(=NC2CCCCC2)N1c1ccccc1`, the EC50 is greater than 200 µM and the IC50 turned out to be 141 µM.

`Cc1ccc2c(N(CCO)CCO)cc(-c3ccccc3)nc2n1`: the EC50 is greater than 200 µM and the half-inhibitory concentration (IC50) was greater than 200 µM.

In the case of `CCOC(=O)c1sc2nc(-c3ccccc3)nn2c1CBr`, the EC50 was greater than 200 µM and the half-maximal inhibitory concentration (IC50) was found to be 1.07 µM.

`CC(=O)NCCSSCCCCS(=O)O`: the EC50 was greater than 200 µM and the IC50 stood at 3.16 µM.

Turning to `Cc1ccc(S(=O)(=O)C(CCC(=O)c2ccccc2)(CCC(=O)c2ccccc2)[N+](=O)[O-])cc1`, the EC50 is greater than 10.7 µM and the IC50 was greater than 10.7 µM.

Take `N#CC(C#N)=C1C(=O)NC(N)=C1C#N`: the EC50 was greater than 200 µM and the IC50 is greater than 200 µM.

For `CCOC(=O)C(=CNc1ccc(NC2=NCC(C)S2)cc1)C(=O)OCC` (configuration not stated), the EC50 was greater than 200 µM and the half-inhibitory concentration (IC50) stood at 3.24 µM.

For `CC(=O)SC(C[N+](=O)[O-])c1ccc2c(c1)OCO2` (configuration not stated), the EC50 is greater than 200 µM and the concentration for half-maximal inhibition (IC50) turned out to be 3.98 µM.

Turning to `CC[C@H](C)[C@H](NC(=O)N(CCC#N)CCN(CCN(C(=O)N[C@@H](Cc1ccccc1)C(=O)OC)c1ccccc1)C(=O)N[C@H](C(=O)OC)C(C)C)C(=O)OC`, the outcome was inactive.

Consider `CC(C)N=C=NC(C)C`, for which the EC50 was greater than 380 µM and the concentration for half-maximal inhibition (IC50) is greater than 380 µM.

Turning to `COc1ccc(N2C(=O)/C(=C\c3cc(OC)c(OC)c(OC)c3)SC2c2ccccc2)cc1` (configuration not stated), the EC50 was greater than 200 µM and the IC50 turned out to be 51.3 µM.

Regarding `COC(=O)/C=C\C(C#N)(C#N)N=Cc1ccc(Br)cc1`, the EC50 is greater than 20 µM and the IC50 was 1.02 µM.

Regarding `C[C@H]1CC[P+](C)(c2ccccc2)C1` (some centres not stated), the EC50 is greater than 912 µM and the concentration for half-maximal inhibition (IC50) is greater than 912 µM.

Regarding `CN(C)/C=C(\C(=O)c1ccccc1)n1nc(-c2ccccc2)cc1-c1ccccc1`, the EC50 was greater than 200 µM and the concentration for half-maximal inhibition (IC50) worked out at 87.1 µM.

On to `COC1C=COC2(C)Oc3c(C)c(O)c4c(O)c(c(C5SCCS5)c(O)c4c3C2=O)NC(=O)/C(C)=C\C=CC(C)C(O)C(C)C(O)C(C)C(OC(C)=O)C1C` (configuration not stated), for which the EC50 was greater than 200 µM and the concentration for half-maximal inhibition (IC50) worked out at 0.646 µM.

For the compound `COC(=O)C(CSSCC(NC(=O)CNC(=O)c1ccccc1)C(=O)OC)NC(=O)CNC(=O)c1ccccc1` (stereo not drawn) (I: Bz-Gly-Cys-OMe / II: Bz-Gly-Cys-OMe; disulfide I:2-II:2; configuration not given here), the EC50 was greater than 117 µM and the half-inhibitory concentration (IC50) came to 38.9 µM.

As to `CC(C)CCCC(C)C1CCC2[C@@H]3CCC4C[C@@H](CCCC(c5cc(Cl)c(O)c(C(=O)O)c5)c5cc(Cl)c(O)c(C(=O)O)c5)CC[C@]4(C)C3CC[C@]12C` (some centres not stated), the EC50 is 18.2 µM and the IC50 came out at 309 µM.

Regarding `O=C1NC(=S)N/C1=C\c1ccccc1`, the EC50 is greater than 200 µM and the half-maximal inhibitory concentration (IC50) is 178 µM.

In the case of `CCC(c1ccccc1)c1noc(CCN(CC)CC)n1` (configuration not stated), the EC50 was greater than 200 µM and the IC50 came out at 33.9 µM.

For `Cc1cccc(C=C2C(=O)NC(=O)NC2=O)c1`, the EC50 is greater than 407 µM and the IC50 is greater than 407 µM.

Consider `O=C(CCc1nc(=S)[nH][nH]1)Nc1cc(Cl)c(Cl)cc1Cl`, for which the EC50 was greater than 195 µM and the concentration for half-maximal inhibition (IC50) is greater than 195 µM.

Consider `CCCCCC(C)[P+](c1ccccc1)(c1ccccc1)c1ccccc1` (configuration not stated), for which the EC50 is greater than 200 µM and the IC50 was 0.955 µM.

Take `COC(=O)CCCC(=O)C1=Nc2ccccc2CN(c2ccc(Cl)cc2)N1`: the EC50 is greater than 200 µM and the IC50 came out at 126 µM.

For the compound `CC(C)CC(N)CO` (configuration not stated), the EC50 was greater than 200 µM and the 50% inhibitory concentration (IC50) was greater than 200 µM.

Regarding `COc1ccc(/C=N/n2c(C)nc3c(sc(=S)n3-c3ccccc3)c2=O)cc1`, the EC50 was greater than 12.6 µM and the IC50 is greater than 12.6 µM.

Regarding `C=CC(=O)N1C/C(=C\c2ccccc2)C(=O)/C(=C/c2ccccc2)C1`, the EC50 was greater than 15.8 µM and the half-inhibitory concentration (IC50) amounted to 0.933 µM.

Turning to `O=C1N=C(SC2OC(CO)C(O)C(O)C2O)S/C1=C\c1ccccc1` (configuration not stated), the outcome was inactive.

Turning to `Cc1ccc(C2=Nc3ccccc3SC(c3cccc4c3OCO4)C2)cc1` (configuration not stated), the EC50 is greater than 14.1 µM and the 50% inhibitory concentration (IC50) is greater than 14.1 µM.

For the compound `O=C(/C=C/c1ccccc1Cl)NC1C=Nc2ccc([N+](=O)[O-])cc2NC1` (configuration not stated), the EC50 is greater than 26.9 µM and the IC50 is greater than 26.9 µM.

On to `COc1cc(N(C)C)c(OC)cc1C=C1C=CC=C1`, for which the EC50 is greater than 977 µM and the IC50 turned out to be 0.407 µM.

Take `COc1cc(O)c(C(=O)/C=C/c2ccc(OC)c(OCc3ccccc3)c2)c(OC)c1`: the outcome was inactive.

For `c1ccc2[nH]c(-c3nc4ccccc4s3)nc2c1`, the EC50 was greater than 15.1 µM and the 50% inhibitory concentration (IC50) came out at 5.37 µM.

Regarding `Nc1nc2c(c(=O)[nH]1)CNC2=O`, the EC50 is greater than 200 µM and the concentration for half-maximal inhibition (IC50) is greater than 200 µM.

On to `O=[N+]([O-])c1ccc(-c2noc(-c3ccccc3)c2C2=NCCN2)cc1`, for which the EC50 is greater than 15.5 µM and the half-maximal inhibitory concentration (IC50) was greater than 15.5 µM.

As to `CCOC(=O)C[C@](C)(O)C1CCCN1` (some centres not stated), the result was inactive.

In the case of `C=C(C)[C@H]1C2=CC(C(=O)OC)=C(C[C@H](C(=C)C)[C@H]3O[C@H]3C3=C[C@H]1OC3=O)O2`, the EC50 is greater than 200 µM and the IC50 was found to be 1.62 µM.

For the compound `C1CSCCCSCCCSCCCSC1`, the EC50 is greater than 33.9 µM and the IC50 was greater than 33.9 µM.

For `COC(OC)C1OC(CO)C(n2cc(F)c(=O)[nH]c2=O)C1O` (configuration not stated), the EC50 was greater than 200 µM and the concentration for half-maximal inhibition (IC50) was greater than 200 µM.

Consider `Nc1ccc(CCN2CCN(c3cccc(C(F)(F)F)c3)CC2)cc1`, for which the result was inactive.

As to `O=C(N=S(NC(=O)c1ccccc1)C(Cl)(Cl)Cl)c1ccccc1` (configuration not stated), the concentration giving a half-maximal response (EC50) is greater than 44.7 µM and the IC50 worked out at 16.6 µM.

Turning to `Cc1nnc2sc3ccccc3n12`, the outcome was inactive.

Consider `COc1cc2c(cc1O)C1Cc3ccc(OC)c(O)c3C(C2)N1C` (configuration not stated), for which the EC50 was greater than 200 µM and the half-inhibitory concentration (IC50) was found to be 85.1 µM.

Consider `COC(=O)CC1(O)C(C=C(C)C)C(C(=O)OC)C(=O)C(C(=O)OC)C1C(=O)OC` (configuration not stated), for which the EC50 is greater than 200 µM and the half-maximal inhibitory concentration (IC50) is greater than 200 µM.

Regarding `Nc1ccc(Sc2nnc(N)s2)cc1`, the EC50 was greater than 224 µM and the IC50 was greater than 224 µM.

In the case of `CNC(=S)N1CCN(C(C)=O)C1=S`, the EC50 is greater than 200 µM and the IC50 is greater than 200 µM.
